Source: patent US11422091B2, “Turn-on near infrared fluorescent probes for imaging lysosomal ROS in live cells at subcellular resolution” (University of Massachusetts, priority 2015, dated 2022)

What was measured:
[1] = tested on: Bovine Aortic Endothelial Cells (BAEC); test: Co-localization with Mito Tracker Green and Lyso Tracker Blue, confocal imaging in BAEC; format: cell-based; conditions: BAEC preloaded with TBHP (100 μM) 30 min, RTMI (10 μM) 30 min
Description: Confocal fluorescence imaging studies were performed with a Zeiss LSM 710 laser scanning microscope.

[2] = Fluorescent responses of RTMI to various ROS in PBS
Description: Fresh solutions of L-ascorbic acid (50 mM), hydrogen peroxide (100 mM), tert-butyl hydrogen peroxide (TBHP, 100 mM), 3-morpholinosydnonimine (SIN-1, 5 mM), glutathione reduced form (GSH, 10 mM) and glutathione oxidized form (GSSG, 10 mM) were prepared with distilled water. […]
The hydroxyl and butoxyl radicals were generated in situ by reacting hydrogen peroxide or TBHP with Fe^2+. Fresh 10 mM Fe^2+ was made in 0.1 M HCl solution using ferrous ammonium sulfate [Fe(NH4)2(SO4)2.6H2O]. A 10 μM RTMI solution, in PBS, containing 10 μM Fe^2+ was made and either hydrogen peroxide or TBHP was added to this solution to generate a 100 μM concentration.
Fluorescence spectra were recorded on a Perkin-Elmer LS55 luminescence spectrometer at 293 K. The excitation wavelengths and filters used were indicated in the figures. The pH measurements were carried out on a Corning pH meter equipped with a Sigma-Adrich micro combination electrode calibrated with standard buffer solution.
Fluorescent responses of RTMI (100 μM) to various ROS were monitored in PBS, containing 1% methanol. Various reactive oxygen species were added to the 100 μM RTMI solutions, at a 5:1 molar ratio to RTMI, and the fluorescence intensity was recorded after 5 min of incubation at 25° C. Superoxide (O2.^−) was added as solid KO2. Stock solution solutions of hydrogen peroxide, tert-butyl hydrogen peroxide (TBHP), hypochlorite, 3-morpholinosydnonimine (SIN-1), glutathione (GSH) and 1,4-hydroquinone were made and then added to the RTMI solution, to generate a 500 μM final concentration. 3-(aminopropyl)-1-hydroxy-3-isopropyl-2-oxo-1-triazene (NOC-5, 1 mM) was made as a 10 mM sodium hydroxide solution and then added to the RTMI solution, to generate a 500 μM final concentration. The hydroxyl and butoxyl radicals were generated in situ by reacting hydrogen peroxide or TBHP with Fe^2+. A 100 μM RTMI solution, in PBS, containing 500 μM Fe^2 was made and either hydrogen peroxide or TBHP was added to this solution to generate a 500 μM concentration.

[3] = Photo stability of the sensor; format: physicochemical
[4] = tested on: BAEC cells; test: Detection of ROS in live BAEC cells by fluorescence microscopy; format: cell-based, bovine; conditions: HO., H2O2, KO2, TBO, TBHP, peroxynitrite or ox-LDL, RTMI 10 μM
Description: In one embodiment, the RTMI may be used to analyze ROS species within living systems. The RTMI sensor solution was applied to live cells and analyzed under a fluorescence microscope. Each of the various ROS (HO., H2O2, KO2, TBO, TBHP, peroxynitrite) or ROS inducer (ox-LDL) that were present combined with the RTMI sensor were incubated with BAEC cells.
The sensor RTMI was dissolved in DMF at a concentration of 10 mM. 1 μL of the DMF solution was added to cell medium without fetal bovine serum. Cell culture medium was removed from the cells in the culture dish and replaced with the fresh medium containing the sensor.
Oxidized low density lipoprotein (Ox-LDL, a stimulation factor for ROS production in cells) was dissolved in water solution and the final concentration in cell media was 20 μg/mL.
Commercial H2O2 (30% wt, density of 1.1 g/ml, MW 34.02 g/mol) was diluted with deionized water to make a fresh solution of 100 mM. 1 μL of the fresh solution was added to cell media to generate a final concentration of 100 μM.
SIN1 (a peroxyitrite donor) was dissolved in deionized water to the concentration of 10 mM; 10 μL of this solution added to cell media to generate a final concentration of 100 μM.
Fe^2+ was freshly made from ferrous ammonium sulfate (MW 392.15 g/mol) dissolved in 0.1 M HCl (DI water solution) to generate a fresh solution of 100 mM. […]

[5] = RTMI 100 μM in PBS, 1% methanol, 500 μM, 5 min, 25° C.

fluorescence peak upon reacting with ROS ([2]; in physiological buffer, near IR region): 705 nm | photo stability [3]: very good photo stability
SMILES: CCCN1c2ccccc2C(C)(C)C1/C=C/C1=C2Oc3cc(O)ccc3C=C2CCC1 (stereo not drawn) [RTMI]
subcellular location of ROS detected by the sensor [1]: in lysosomes | fluorescence response to TBHP [2, 5]: turn-on | fluorescence response to hydrogen peroxide [2, 5]: turn-on | fluorescence response to peroxynitrite (generated by SIH 1) [2, 5]: turn-on | fluorescence response to superoxide (O2.-) ([2]; RTMI 100 μM in PBS, 1% methanol, solid KO2, 5:1 molar ratio, 5 min, 25° C.): turn-on | fluorescence response to butoxyl radical (TBO) ([2]; RTMI 100 μM in PBS, generated in situ from TBHP 500 μM and Fe2+ 500 μM): turn-on | fluorescence response to hydroxyl radical ([2]; RTMI 100 μM in PBS, generated in situ from hydrogen peroxide 500 μM and Fe2+ 500 μM): turn-on | fluorescence response to Fe2+ ([2]; beyond baseline fluorescence): does not respond | fluorescence response to GSH ([2]; beyond baseline fluorescence): does not respond | fluorescence response to GSSG ([2]; beyond baseline fluorescence): does not respond | fluorescence response to nitrite ([2]; beyond baseline fluorescence): does not respond | fluorescence response to nitric oxide radical ([2]; beyond baseline fluorescence, NOC-5): does not respond | fluorescence emission in the near IR region of cells treated with ROS or ROS inducers, compared to the control [4]: strongly fluorescence emission signals
